Experiment [1] can be described thus: DPPH radical scavenging activity assessed as absorption change at 60 ppm by spectrophotometry. It counts as functional. A general note: The DPPH test is a chemical assay of radical scavenging.
Experiment [2] addresses T1, Prostaglandin G/H synthase 1 (Ovis aries) (UniProt P05979).
T1 sequence (whole entry): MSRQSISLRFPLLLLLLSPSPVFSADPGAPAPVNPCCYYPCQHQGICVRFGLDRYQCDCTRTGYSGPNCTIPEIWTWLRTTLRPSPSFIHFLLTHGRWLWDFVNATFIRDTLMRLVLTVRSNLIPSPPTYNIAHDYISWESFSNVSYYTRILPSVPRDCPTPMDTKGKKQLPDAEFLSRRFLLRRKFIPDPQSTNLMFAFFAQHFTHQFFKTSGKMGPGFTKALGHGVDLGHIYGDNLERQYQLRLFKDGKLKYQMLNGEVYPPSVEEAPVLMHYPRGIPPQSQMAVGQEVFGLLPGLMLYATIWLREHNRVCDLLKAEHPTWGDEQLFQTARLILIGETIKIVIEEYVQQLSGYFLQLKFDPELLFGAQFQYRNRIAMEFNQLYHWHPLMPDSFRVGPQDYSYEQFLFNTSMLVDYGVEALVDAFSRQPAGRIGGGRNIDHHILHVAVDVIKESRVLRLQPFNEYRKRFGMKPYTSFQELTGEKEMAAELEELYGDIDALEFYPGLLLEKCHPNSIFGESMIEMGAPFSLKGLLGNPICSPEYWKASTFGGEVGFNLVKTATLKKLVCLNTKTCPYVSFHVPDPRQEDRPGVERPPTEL
Nature of the experiment: Inhibition of ram seminal vesicle COX1 at 100 ppm. It counts as tissue-based.

Experiment [3] in a line: Inhibition of AAPH-induced lipid peroxidation. The format is functional. To be noted: dose or concentration not given here.
A short description of experiment [4]: Inhibition of lipid peroxidation at 100 ppm after 21 mins. It counts as functional.

Consider four molecules from ChEMBL document CHEMBL1141437, “Lipoperoxidation and cyclooxygenase enzyme inhibitory piperidine alkaloids from Cassia spectabilis green fruits” (J Nat Prod, 2007).

As for `COc1cc(/C=C/C(=O)O[C@@H]2CC[C@H](CCCCCCCCCCC(C)=O)N[C@@H]2C)ccc1O`, the deltaA in experiment [1] was 40%. Further, the inhibition – broadly, the percentage by which the read-out fell short of the control – in experiment [2] was 33%; in experiment [3], 50%.

As to `C[C@@H]1O[C@@H](OC[C@H]2O[C@@H](Oc3c(-c4ccc(O)c(O)c4)oc4cc(O)cc(O)c4c3=O)[C@H](O)[C@@H](O)[C@@H]2O)[C@H](O)[C@H](O)[C@H]1O`, the deltaA in experiment [1] was 92%.

Regarding `CC(=O)CCCCCCCCCCCC[C@H]1CC[C@@H](OC(C)=O)[C@@H](C)N1`, in experiment [1], the deltaA is less than 10%. For the same molecule, the inhibition in experiment [4] stood at 75%; in experiment [2] it was 58%; in experiment [3], 50%.

Regarding `CC(=O)CCCCCCCCCCCC[C@H]1CC[C@@H](O)[C@@H](C)N1`, in experiment [1], the deltaA is less than 10%. For the same molecule, the inhibition is 75% in experiment [4], 40% in experiment [2] and 50% in experiment [3].
